Experimental data published in patent US10465227B2, “Microbial testing devices, methods of making microbial testing devices and methods of identifying novel antimicrobial drug candidates” (BOARD OF REGENTS, THE UNIVERSITY OF TEXAS SYSTEM, priority 2010, dated 2019).

System: C. albicans biofilms
Test: Susceptibility testing of preformed C. albicans biofilms in CaBChip (FUN 1 fluorescence)
Assay type: cell-based, Candida albicans strain SC5314
Settings: 24 h preformed biofilms on CaBChip, 24 h drug exposure; for SMIC50 / SMIC80: FUN 1 staining
Method: A four-factor, two-level factorial design was performed using MINITAB (Minitab Solutions Inc., State College, Pa.) and DESIGN EXPERT (Stat-Ease Inc., Minneapolis, Minn.) software to obtain optimal conditions of media concentration, seeding density, collagen concentration and PSMA coating concentration for wash-resistant biofilm growth on the CaBChip. The response (output) metrics were true biofilm yield and robust attachment, measured using microarray scanner and light microscope. For preparation of inocula for printing and biofilm formation in the CaBChip, cells harvested from overnight YPD cultures were washed twice in sterile phosphate buffered saline (PBS; 10 mM phosphate buffer, 2.7 mM potassium chloride, 137 mM sodium chloride (pH 7.4) (Sigma) by centrifugation at 3000 g. The cells were then resuspended in Reconstruction buffer (0.2N NaOH solution with 2.2% (wt/vol) Sodium Bicarbonate and 4.8% (wt/vol) HEPES). One hundred fold dilutions of the suspended cells were prepared and counted using a hemocytometer on a bright field microscope. Following count, a suspension of cells was prepared in reconstruction buffer at a cell density of 5×10^7 cells/mL, which was diluted ten times by addition of 10×RPMI-1640 supplemented with L-glutamine and buffered with morpholinepropanesulfonic acid (Angus Buffers and Chemicals, Niagara Falls, N.Y.) containing collagen (1.8 mg/ml) (Type 1 from rat tail, BD Biosciences, Bedford, Mass.), to give a final concentration of cells of […]. The suspension containing yeast cells, collagen and media was printed (50 nL per spot) on the functionalized PSMA-coated glass slides using a microarray spotter (Omnigrid Micro, Digilab Inc., Holliston, Mass.). Printing was carried out by non-contact deposition using conically tapered 190μ orifice ceramic tips (Digilab). The resulting spots were approximately 700μ in diameter, spaced 1.2 mm apart; spots were printed in an array of 48 rows and 16 columns. In a standard print nm, the tips were primed, rinsed in running water and vacuum dried twice after each loading and printing step. The cell suspension was kept on ice to prevent the gelation of collagen before printing and agitated gently just prior to placement on the printing robot to ensure a uniformly mixed cell suspension. A relative humidity of 97% was maintained during printing to prevent the drying of the biofilm spots. All microarray operations such as aspiration, dispensing, priming, printing and spatial distribution of array were controlled by AxSys program (Digilab). All surfaces, including the source plate station, wash and vacuum station, vacuum slide platter and printing chamber were sterilized by wiping with 70% isopropanol. In our experience, these procedures ensure that there is no detectable contamination of wells in the plates or of spots on the microarray. After printing, the slides were placed inside humidifier chambers (Arraylt Corporation, Sunnyvale, Calif.), which were placed inside a 37 C incubator over different periods of time to allow for biofilm formation.
FUN 1 [2-chloro-4-(2,3-dihydro-3-methyl-(benzo-1,3-thiazol-2-yl)-methylidene)-1-phenylquinolinium iodide] (Invitrogen Corp., Carlsbad, Calif.) was used to stain and determine viability (levels of metabolic activity) of C. albicans cells within the biofilms formed in the chips. This membrane-permeable fluorescent dye is internalized and processed by metabolically active fungal cells, and has excitation and emission spectra that are compatible with the sets of lasers and filters installed in most microarray scanners. Briefly, the CaBChip was stained with 0.5 tM FUN 1, by simply dunking the entire CaBChip in a staining jar, and incubated in the dark at 37° C. for 30 min. Following incubation, the chip was washed three times by dunking in PBS in order to remove excess stain. The slides were then air-dried and scanned in a microarray scanner (Genepix Personal4100A, Axon Instruments, Union City, Calif.). […]

calculated IC50 (FUN 1 fluorescence, Hill equation fit)	Structure (SMILES)	susceptibility of biofilms formed on CaBChip (in words)	SMIC50	SMIC80	IC50 (Candida albicans, FUN 1 fluorescence, Hill equation fit, read-out: calculated IC50)
0.27 ± 0.04 µg/mL	C[C@@H]1[C@H](O)[C@@H](C)/C=C/C=C/C=C/C=C/C=C/C=C/C=C/[C@H](O[C@@H]2O[C@H](C)[C@@H](O)[C@H](N)[C@@H]2O)C[C@@H]2O[C@](O)(C[C@@H](O)C[C@@H](O)[C@H](O)CC[C@@H](O)C[C@@H](O)CC(=O)O[C@H]1C)C[C@H](O)[C@H]2C(=O)O [amphotericin B]	effective against biofilms formed on CaBChip, but only at relatively high concentrations	0.5 µg/mL	1 µg/mL	–
–	OC(Cn1cncn1)(Cn1cncn1)c1ccc(F)cc1F [fluconazole]	intrinsically resistant to fluconazole	> 1,024 μg/ml	> 1,024 μg/ml	> 1020 µg/mL
